{"source": "patent US20240377321A1", "about": "“HOLOGRAPHIC IMAGE PROCESSING AND DATA EXTRACTION” (Accelerate Diagnostics, Inc., priority 2023, published 2024)", "test_system": "Klebsiella oxytoca (CDCJI 380)", "test": "holographic monitoring of cellular growth of Klebsiella oxytoca incubated with antibiotic", "assay_type": "cell-based", "settings": "0.5 mg/mL Meropenem, about eight hours incubation", "protocol": "FIGS. 18A-18E depict a sequence of photographs A-E of a sample volume 18, with FIG. 18A depicting the earliest photograph, and FIG. 18E depicting the latest photograph. The photographs A-E show cellular growth of Klebsiella oxytoca (CDCJI 380), which was incubated with 0.5 mg/mL of the antibiotic Meropenem over a period of about eight hours. The photographs A-E provide an example of a complex response of microorganisms to an antibiotic. A holograph 32 of the sample volume 18 was captured every ten minutes during the incubation period. FIG. 19 depicts a graph including a plot 170 of a cellular growth indicator (e.g., the holographic intensity variance) extracted from the full holograph 32, and a plot 172 of the cellular growth indicator extracted from the set of pixels comprising tile six of the holograph 32. The times corresponding to the photographs A-E of FIGS. 18A-18E are indicted by correspondingly labeled arrows in the graph of FIG. 19. […] The slight rise in the cellular growth indicator after seven hours is the earliest indication of a potential resurgence of cell growth, e.g., due to the microorganism becoming resistant.\nThe divergence of tile plot 172 from the full-holograph plot 170 begins at about the three and half hour mark. This is due to the response of the microorganism to the antibiotic in the localized region of the sample volume corresponding to tile six. This region of the sample volume contains a subpopulation of bacterial cells that appear to have become resistant to the antibiotic, and have begun to grow in colony clusters. This example of delayed resistance to an antibiotic is clinically relevant, and recognizing the resistance early in a test can lead to timely administration of the correct antibiotic at the right dose to treat the patient. From an algorithmic perspective, systematically dividing holographs into portions (e.g., tiles) and calculating the cellular growth indicator for each portion can be used to identify events or hot spots in the growth or death of microorganisms."}
{"smiles": "C[C@@H](O)[C@H]1C(=O)N2C(C(=O)O)=C(S[C@@H]3CN[C@H](C(=O)N(C)C)C3)[C@H](C)[C@H]12", "note": "[Meropenem]", "values": [{"measurement": "cellular growth indicator (e.g., holographic intensity variance) over time, full holograph", "setting": "full-holograph plot 170", "value": "decreases after three and a half hours of incubation, followed by a slight increase after seven hours of incubation"}, {"measurement": "response of microorganism to antibiotic based on full-holograph plot", "setting": "holograph every ten minutes, full-holograph plot 170", "value": "appears to be sensitive to the dose of antibiotic"}, {"measurement": "cellular growth indicator over time, tile six of the holograph", "setting": "tile plot 172 (tile six)", "value": "resurgent growth due to emerging antibiotic resistance at about four and a half hours"}]}
